The values below come from patent US4277498A, “Amides” (Burroughs Wellcome Co., priority 1976, dated 1981).

Data set [1] can be described thus: Anti-tetrabenazine test (ptosis and sedation), Example 37. In kind it is in vivo, Female albino mice. The settings on record: Mus musculus, po. The procedure:
Female albino mice were grouped, six per cage. Compounds of formula (I) as the respective salt in saline solution were administered orally, thirty minutes prior to the administration of tetrabenazine, 50 mg/kg, i.p. The animals were scored according to the method of V. G. Vernier, H. M. Hanson and C. A. Stone: Psychosomatic medicine, ch.

A short description of data set [2]: tetrabenazine-induced sedation test in the rat (general statements on antidepressant activity). In kind it is in vivo. The settings on record: acceptable salts.
Another data set can be described thus: in vivo. The conditions noted are these: mouse, po, mice, p.o. as salt in saline, deaths within two days. The procedure: Several groups of mice were treated with specific doses of compounds of formula (I) as orally administered salts in saline solution. After treatment of each group with a different dose of a specific compound the number of mice dead in each group within two days was noted. […] The LD50 value is the lethal dose required to kill half of the treated animals.
The procedure was repeated with other groups of mice for other compounds of formula (I).

The mark [3] stands for this setting: ptosis, mice, p.o. as salt in saline, 30 min before tetrabenazine 50 mg/kg i.p., read-out: Anti-depressant activity, approx. ED50 values, p.o., Ptosis.
The mark [4] stands for this setting: sedation, mice, p.o. as salt in saline, 30 min before tetrabenazine 50 mg/kg i.p., read-out: Anti-depressant activity, approx. ED50 values, p.o., Sedation.

SMILES strings stand for the structures. Counter-ions that a name gives are not always drawn. Like-named read-outs stand apart in the source and are kept apart here.

Consider `CC(CC1CCCCC1)NC(=O)CN` (racemic) [Example 9, hydrogen fumarate, (±)-2-Amino-N-(2-cyclohexyl)-1-methylethyl)acetamide hydrogen fumarate], for which the median effective dose (ED50) is around 6 mg/kg in data set [1] (setting [3]) and around 7.5 mg/kg in data set [1] (setting [4]).

`CC(C)CCCC(C)(C)NC(=O)CN` [2-amino-N-(1,1,5-trimethylhexyl)acetamide]: the “antidepressant activity in the tetrabenazine-induced sedation test” value (shortened to “antidepressant activity”) in data set [2] is reported as “have shown antidepressant activity”.

For `CCCCCC(C)NC(=O)CN` (stereo not drawn) [2-amino-N-(1-methylhexyl)acetamide], in data set [2], the “antidepressant activity” value is “have shown antidepressant activity”.

Consider `CC(C)(CC1CCCC1)NC(=O)CN` [2-amino-N-(2-cyclopentyl-1,1-dimethylethyl)acetamide], for which the “antidepressant activity” value in data set [2] is “have shown antidepressant activity”.

As to `CCCCCC(C)(C)NC(=O)CN` [Example 2, hydrogen oxalate, 2-amino-N-(1,1-dimethylhexyl)acetamide], the ED50 is around 3.5 mg/kg in data set [1] (setting [3]) and around 2.3 mg/kg in data set [1] (setting [4]).

For the compound `CC1(NC(=O)CN)CCCCC1` [Example 3, hydrogen oxalate, 2-Amino-N-(1-methylcyclohexyl)acetamide], the ED50 in data set [1] (setting [3]) was around 6.92 mg/kg; in data set [1] (setting [4]), around 5.69 mg/kg. Besides, in the data set “in vivo”, the LD50 at 48 h was above 2000 mg/kg.

Regarding `CC1(NC(=O)CN)CCCCCC1` [Example 4, hydrogen oxalate, 2-Amino-N-(1-methylcycloheptyl)acetamide], the ED50 is around 5 mg/kg in data set [1] (setting [3]) and around 10.6 mg/kg in data set [1] (setting [4]). Also, in the data set “in vivo”, the LD50 at 48 h worked out at 1110 mg/kg.

In the case of `CCCCC(C)(C)NC(=O)CN.O=C(O)C(=O)O` [Example 5, hydrogen oxalate, 2-amino-N-(1,1-dimethylpentyl)acetamide hydrogen oxalate], the ED50 in data set [1] (setting [3]) is around 20 mg/kg; in data set [1] (setting [4]), around 10 mg/kg. Moreover, the LD50 at 48 h in the data set “in vivo” was found to be 536 mg/kg.

With `CCCC(C)CC(C)(C)NC(=O)CN` (stereo not drawn) [Example 6, hydrogen fumarate, 2-amino-N-(1,1,3-trimethylhexyl)acetamide], the ED50 in data set [1] (setting [3]) was around 18.7 mg/kg; in data set [1] (setting [4]), around 9.5 mg/kg.

On to `CCCCCCC(C)(C)NC(=O)CN` [Example 7, hydrogen fumarate, 2-Amino-N-(1,1-dimethylheptyl)acetamide], for which, in the data set “in vivo”, the LD50 at 48 h turned out to be 1000 mg/kg.

For `CCCCCC(C)NC(=O)CN.O=C(O)CCC(=O)O` (stereo not drawn) [Example 8, hydrogen succinate, 2-Amino-N-(1-methylhexyl)acetamide hydrogen succinate], the figures for the ED50 in data set [1] (setting [3]) and in data set [1] (setting [4]) were around 3.8 mg/kg and around 2.7 mg/kg, respectively. Further, the LD50 at 48 h in the data set “in vivo” amounted to 500 mg/kg.

With `CC(C)(CC1CCCC1)NC(=O)CN.CCO.O=C(O)/C=C/C(=O)O` [Example 11, hydrogen fumarate, 2-Amino-N-(1,1-dimethyl-2-cyclopentylethyl)acetamide hydrogen fumarate monoethanolate], the ED50 in data set [1] (read-out: Anti-depressant activity, approx. ED50 values, p.o., Ptosis) was around 5 mg/kg; in data set [1] (read-out: Anti-depressant activity, approx. ED50 values, p.o., Sedation), around 5 mg/kg. For the same compound, the LD50 at 48 h in the data set “in vivo” was found to be 575 mg/kg.

Take `CC(C)CCCC(C)(C)NC(=O)CN` [Example 12, hydrogen succinate, 2-amino-N-(1,1,5-trimethylhexyl)acetamide]: the ED50 in data set [1] (setting [3]) is around 8 mg/kg; in data set [1] (setting [4]), around 2.5 mg/kg.

The term ED50 denotes the dose that gives a 50% effect, or the effect in half of the subjects. For orientation: LD50 means the dose at which mortality reaches 50%.
